In this series the test system is maize. Put plainly: Glass house test of safening effect on herbicide A, post-emergence application, phytotoxicity in maize. In kind it is in vivo. To be noted: for Phytotoxicity (%): post-emergence, maize, 24 DAA. The procedure: A glass house test was carried out to determine the safening effect of numerous safeners on a compound of Formula (I) with respect to maize. Various herbicidal compositions were applied post-emergence and the observed phytotoxicity in maize assessed 24 days after application (24DAA). A=2-chloro-5-[3,6-dihydro-3-methyl-2,6-dioxo-4-(trifluoromethyl)-1(2H)-pyrimidinyl]-4-fluoro-N-[[methyl(1-methylethyl)amino]sulfonyl]benzamide; B=1-[4-(N-2-methoxybenzoylsulfamoyl)phenyl]-3-methylurea.

The mark [1] stands for this setting: safener 100 g/ha applied with herbicide A 100 g/ha.
The mark [2] stands for this setting: safener 250 g/ha applied with herbicide A 250 g/ha.

In the case of `O=C(O)C1=NOC(c2ccccc2)(c2ccccc2)C1` [Isoxadifen], the “Phytotoxicity (%)” value runs as follows: under setting [1], 28%; under setting [2], 30%.
As for `O=C(O)COc1ccc(Cl)c2cccnc12` [Cloquintocet], the “Phytotoxicity (%)” value runs as follows: under setting [1], 25%; under setting [2], 35%.
Turning to `CC1(C(=O)O)CC(C(=O)O)=NN1c1ccc(Cl)cc1Cl` (stereo not drawn) [Mefenpyr], the “Phytotoxicity (%)” value by setting is: under setting [1], 30%; under setting [2], 40%.
As for `CNC(=O)Nc1ccc(S(=O)(=O)NC(=O)c2ccccc2OC)cc1` [B, 1-[4-(N-2-methoxybenzoylsulfamoyl)phenyl]-3-methylurea], the “safening of the 3-phenyluracil herbicide A in maize” value (in vivo) is given as “surprisingly good safening”.
As for `CC(C)N(C)S(=O)(=O)NC(=O)c1cc(-n2c(=O)cc(C(F)(F)F)n(C)c2=O)c(F)cc1Cl` [A, 2-chloro-5-[3,6-dihydro-3-methyl-2,6-dioxo-4-(trifluoromethyl)-1(2H)-pyrimidinyl]-4-fluoro-N-[[methyl(1-methylethyl)amino]sulfonyl]benzamide], the “Phytotoxicity (%)” value turned out to be 25% (herbicide A 100 g/ha, no safener) and 35% (herbicide A 250 g/ha, no safener).

The values above are taken from patent publication US8648011B2, “Herbicidal compositions” (Syngenta Crop Protection LLC, priority 2009, dated 2014).
